Compound in one assay: NC(=O)CCCCC1CCSS1 [lipoamide]
The assay can be described thus: thermal stability z-score vs DMSO; higher = more thermally stabilized by treatment. The conditions noted are these: HeLa, lipoamide concentration 100 µM. How it is done:
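Cellular thermal proteome profiling in HeLa cells. Cells were treated with 100 µM lipoamide for 1 h, with or without 1 mM arsenate for a further 1 h, then heated to ten temperatures (37-66.3 °C), and soluble protein was quantified by TMT mass spectrometry relative to 0.1% DMSO controls. The thermal stability score (sum of log2 fold changes minus the abundance score) was transformed to a z-score; mean of n = 3 experiments.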

Compound in the next assay: O=[As]([O-])(O)O.[K+] [potassium arsenate]
Described as above. The following applies: HeLa; arsenate concentration 1 mM. The method, then:
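Cellular thermal proteome profiling in HeLa cells treated with 1 mM arsenate for 1 h (DMSO pretreatment), heated to ten temperatures (37-66.3 °C). Soluble protein was quantified by TMT mass spectrometry relative to DMSO controls; the thermal stability score was transformed to a z-score; mean of n = 3 experiments.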

[1] abbreviates: arsenate co-treatment: 1 mM arsenate 1 h.
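Note: each temperature applied for 3 min, abundance score taken as mean log2 fold change at the two lowest temperatures, z-score obtained by mean subtraction and division by SD.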

Sequence of UniProt O76080 (O76080 whole entry): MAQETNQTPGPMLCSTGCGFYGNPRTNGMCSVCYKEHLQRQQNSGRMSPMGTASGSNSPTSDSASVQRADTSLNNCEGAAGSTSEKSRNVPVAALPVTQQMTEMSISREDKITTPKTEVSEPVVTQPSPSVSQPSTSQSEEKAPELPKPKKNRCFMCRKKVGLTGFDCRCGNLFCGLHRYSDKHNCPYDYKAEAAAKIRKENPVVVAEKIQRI
Sequence of UniProt Q15006 (Q15006 whole entry): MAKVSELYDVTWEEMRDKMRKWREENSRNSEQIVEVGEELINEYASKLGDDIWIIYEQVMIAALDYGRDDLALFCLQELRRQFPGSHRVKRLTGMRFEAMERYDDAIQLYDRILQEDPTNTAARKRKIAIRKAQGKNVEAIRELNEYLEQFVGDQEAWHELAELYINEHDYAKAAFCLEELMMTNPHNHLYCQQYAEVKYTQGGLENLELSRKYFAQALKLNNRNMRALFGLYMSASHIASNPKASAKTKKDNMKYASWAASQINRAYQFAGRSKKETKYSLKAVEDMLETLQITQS
Sequence of UniProt Q99959 (Q99959 whole entry): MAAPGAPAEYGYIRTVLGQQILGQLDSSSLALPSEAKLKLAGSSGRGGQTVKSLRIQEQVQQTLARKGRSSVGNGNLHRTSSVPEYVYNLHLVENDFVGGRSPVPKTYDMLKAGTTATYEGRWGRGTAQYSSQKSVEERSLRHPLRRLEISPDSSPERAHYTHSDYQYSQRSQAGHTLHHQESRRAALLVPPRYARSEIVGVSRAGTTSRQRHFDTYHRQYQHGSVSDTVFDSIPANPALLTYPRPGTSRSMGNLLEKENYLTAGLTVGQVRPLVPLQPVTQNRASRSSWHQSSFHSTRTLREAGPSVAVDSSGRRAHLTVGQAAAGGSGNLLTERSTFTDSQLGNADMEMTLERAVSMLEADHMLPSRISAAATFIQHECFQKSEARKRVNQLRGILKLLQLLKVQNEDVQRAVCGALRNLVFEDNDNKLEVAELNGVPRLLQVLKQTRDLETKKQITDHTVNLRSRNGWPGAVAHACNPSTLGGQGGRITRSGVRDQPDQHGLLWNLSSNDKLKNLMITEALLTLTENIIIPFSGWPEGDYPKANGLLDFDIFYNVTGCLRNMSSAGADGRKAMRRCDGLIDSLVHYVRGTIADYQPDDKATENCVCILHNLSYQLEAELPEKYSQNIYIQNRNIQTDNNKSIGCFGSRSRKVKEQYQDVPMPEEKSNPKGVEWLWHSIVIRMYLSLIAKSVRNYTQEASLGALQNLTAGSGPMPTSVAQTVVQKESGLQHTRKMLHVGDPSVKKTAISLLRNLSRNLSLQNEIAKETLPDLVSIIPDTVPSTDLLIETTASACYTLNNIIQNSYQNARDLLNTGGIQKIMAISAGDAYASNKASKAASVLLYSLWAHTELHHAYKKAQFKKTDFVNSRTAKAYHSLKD
Sequence of UniProt P07311 (P07311 whole entry): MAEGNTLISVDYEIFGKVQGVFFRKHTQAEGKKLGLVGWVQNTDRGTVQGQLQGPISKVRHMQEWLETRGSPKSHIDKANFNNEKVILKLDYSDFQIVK
Sequence of UniProt Q969M3 (Q969M3 whole entry): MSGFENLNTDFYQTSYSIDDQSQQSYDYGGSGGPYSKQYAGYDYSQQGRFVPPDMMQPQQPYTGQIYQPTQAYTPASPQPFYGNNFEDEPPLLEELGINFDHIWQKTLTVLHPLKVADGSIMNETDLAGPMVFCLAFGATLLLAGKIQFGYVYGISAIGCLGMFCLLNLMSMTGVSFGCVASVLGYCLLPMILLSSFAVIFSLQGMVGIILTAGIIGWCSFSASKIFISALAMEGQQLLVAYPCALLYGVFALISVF
Sequence of UniProt Q5TCZ1 (Q5TCZ1 whole entry): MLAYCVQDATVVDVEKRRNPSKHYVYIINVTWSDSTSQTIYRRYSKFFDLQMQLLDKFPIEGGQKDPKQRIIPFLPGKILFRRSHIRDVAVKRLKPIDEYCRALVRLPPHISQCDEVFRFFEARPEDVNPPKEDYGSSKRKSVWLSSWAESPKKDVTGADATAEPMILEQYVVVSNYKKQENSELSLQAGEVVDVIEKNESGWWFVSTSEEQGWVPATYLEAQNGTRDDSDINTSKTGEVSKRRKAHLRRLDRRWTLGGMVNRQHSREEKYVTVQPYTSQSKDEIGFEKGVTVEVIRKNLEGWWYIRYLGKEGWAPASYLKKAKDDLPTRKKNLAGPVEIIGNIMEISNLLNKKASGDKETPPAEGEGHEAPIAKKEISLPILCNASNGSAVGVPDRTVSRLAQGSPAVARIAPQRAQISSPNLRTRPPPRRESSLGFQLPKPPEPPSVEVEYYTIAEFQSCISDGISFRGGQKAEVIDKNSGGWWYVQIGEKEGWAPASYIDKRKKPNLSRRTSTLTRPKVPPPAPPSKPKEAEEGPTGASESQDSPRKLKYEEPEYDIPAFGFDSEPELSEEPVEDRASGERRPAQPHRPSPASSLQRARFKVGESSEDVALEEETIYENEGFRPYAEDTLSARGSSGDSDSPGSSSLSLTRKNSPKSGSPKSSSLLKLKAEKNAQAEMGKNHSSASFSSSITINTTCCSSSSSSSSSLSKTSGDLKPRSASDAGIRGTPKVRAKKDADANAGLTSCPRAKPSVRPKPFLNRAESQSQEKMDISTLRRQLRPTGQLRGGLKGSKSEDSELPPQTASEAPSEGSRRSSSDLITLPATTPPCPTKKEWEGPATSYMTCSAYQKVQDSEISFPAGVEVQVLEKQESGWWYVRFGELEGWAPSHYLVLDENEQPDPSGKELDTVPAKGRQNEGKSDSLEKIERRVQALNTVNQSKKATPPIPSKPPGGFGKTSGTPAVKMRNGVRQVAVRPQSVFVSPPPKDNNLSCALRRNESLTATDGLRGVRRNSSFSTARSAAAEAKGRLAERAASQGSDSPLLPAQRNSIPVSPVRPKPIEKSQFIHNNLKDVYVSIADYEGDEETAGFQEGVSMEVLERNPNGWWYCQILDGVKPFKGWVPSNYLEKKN
Sequence of UniProt Q8NBN3 (Q8NBN3 whole entry): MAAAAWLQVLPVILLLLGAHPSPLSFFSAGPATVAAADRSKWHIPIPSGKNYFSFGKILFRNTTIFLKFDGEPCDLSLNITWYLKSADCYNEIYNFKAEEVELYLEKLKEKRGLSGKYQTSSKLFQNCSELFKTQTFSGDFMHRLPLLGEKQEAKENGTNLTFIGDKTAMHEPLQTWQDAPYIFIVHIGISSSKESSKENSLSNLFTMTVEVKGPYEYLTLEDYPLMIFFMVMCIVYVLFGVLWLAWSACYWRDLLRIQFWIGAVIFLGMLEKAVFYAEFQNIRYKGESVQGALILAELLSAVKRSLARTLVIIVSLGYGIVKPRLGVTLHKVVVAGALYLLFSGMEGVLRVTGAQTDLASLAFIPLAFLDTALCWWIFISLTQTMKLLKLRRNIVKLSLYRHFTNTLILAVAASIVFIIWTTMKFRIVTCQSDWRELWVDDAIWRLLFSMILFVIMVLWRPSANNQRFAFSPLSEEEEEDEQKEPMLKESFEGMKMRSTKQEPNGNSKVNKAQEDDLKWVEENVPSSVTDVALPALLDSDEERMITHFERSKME
Sequence of UniProt O15182 (O15182 whole entry): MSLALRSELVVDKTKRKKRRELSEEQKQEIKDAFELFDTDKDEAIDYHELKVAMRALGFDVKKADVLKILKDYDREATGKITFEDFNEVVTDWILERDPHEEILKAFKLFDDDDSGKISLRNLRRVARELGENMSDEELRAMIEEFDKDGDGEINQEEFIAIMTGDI
Sequence of UniProt Q92636 (Q92636 whole entry): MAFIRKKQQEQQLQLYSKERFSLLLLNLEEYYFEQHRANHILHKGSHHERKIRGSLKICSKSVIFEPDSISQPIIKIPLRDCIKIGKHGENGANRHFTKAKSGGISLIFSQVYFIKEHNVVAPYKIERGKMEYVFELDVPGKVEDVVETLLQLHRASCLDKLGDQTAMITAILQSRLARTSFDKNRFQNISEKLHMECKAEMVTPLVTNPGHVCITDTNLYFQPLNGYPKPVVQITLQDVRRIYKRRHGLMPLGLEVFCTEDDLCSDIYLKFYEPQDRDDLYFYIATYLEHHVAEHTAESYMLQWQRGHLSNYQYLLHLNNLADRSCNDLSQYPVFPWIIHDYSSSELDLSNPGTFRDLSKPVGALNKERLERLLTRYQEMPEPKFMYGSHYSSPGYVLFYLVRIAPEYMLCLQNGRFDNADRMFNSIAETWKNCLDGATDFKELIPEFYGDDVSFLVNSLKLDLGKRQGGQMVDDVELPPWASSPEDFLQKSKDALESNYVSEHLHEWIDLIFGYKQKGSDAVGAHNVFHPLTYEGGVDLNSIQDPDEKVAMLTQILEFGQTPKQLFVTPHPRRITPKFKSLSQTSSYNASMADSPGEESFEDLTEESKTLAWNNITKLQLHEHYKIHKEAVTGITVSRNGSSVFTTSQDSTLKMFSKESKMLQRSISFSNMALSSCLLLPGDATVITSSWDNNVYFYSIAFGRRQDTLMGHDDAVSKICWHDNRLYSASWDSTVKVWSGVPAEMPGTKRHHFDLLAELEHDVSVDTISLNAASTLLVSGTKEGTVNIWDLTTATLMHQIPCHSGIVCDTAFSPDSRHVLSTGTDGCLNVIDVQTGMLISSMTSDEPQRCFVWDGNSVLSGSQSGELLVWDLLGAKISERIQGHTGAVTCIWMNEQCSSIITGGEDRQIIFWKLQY
Sequence of UniProt P10644 (P10644 whole entry): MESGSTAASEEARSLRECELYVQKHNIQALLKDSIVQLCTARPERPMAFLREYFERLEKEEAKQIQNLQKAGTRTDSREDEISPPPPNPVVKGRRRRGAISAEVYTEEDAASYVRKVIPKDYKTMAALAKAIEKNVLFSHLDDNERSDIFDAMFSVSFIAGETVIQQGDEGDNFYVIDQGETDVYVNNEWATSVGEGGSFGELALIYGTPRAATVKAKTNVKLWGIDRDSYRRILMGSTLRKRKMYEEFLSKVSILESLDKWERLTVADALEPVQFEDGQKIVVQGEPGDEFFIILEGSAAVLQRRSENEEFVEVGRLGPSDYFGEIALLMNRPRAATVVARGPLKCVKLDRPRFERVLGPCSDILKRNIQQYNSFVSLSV

As to RAD51 (UniProt Q06609), the thermal stability z-score with lipoamide (setting [1]) is 0.0327; with lipoamide (arsenate co-treatment: none), 0.256; with potassium arsenate, -0.0411.

For the target ZFAND5 (UniProt O76080), the thermal stability z-score with lipoamide (setting [1]) was found to be 1.13; with lipoamide (arsenate co-treatment: none), 0.84; in the assay with potassium arsenate it was 0.118.

As to DYNC1LI1 (UniProt Q9Y6G9), the figures for the thermal stability z-score in the assay with lipoamide (setting [1]), in the assay with lipoamide (arsenate co-treatment: none) and with potassium arsenate were -0.18, -0.1 and 0.463, respectively.

Regarding UBE2B (UniProt P63146), the thermal stability z-score with lipoamide (setting [1]) was 0.48; with lipoamide (arsenate co-treatment: none) it was -0.354; in the assay with potassium arsenate it was -0.132.

Consider SYVN1 (UniProt Q86TM6), for which the thermal stability z-score is -2 in the assay with lipoamide (setting [1]), -2.05 in the assay with lipoamide (arsenate co-treatment: none) and -0.421 with potassium arsenate.

Turning to NCBP1 (UniProt Q09161), the thermal stability z-score with lipoamide (setting [1]) was 0.353; with lipoamide (arsenate co-treatment: none) it was 0.393; in the assay with potassium arsenate, -0.0646.

As to ACYP1 (UniProt P07311), the thermal stability z-score with lipoamide (setting [1]) is -0.11; in the assay with lipoamide (arsenate co-treatment: none) it was -0.304; with potassium arsenate, -0.451.

Consider NAA30 (UniProt Q147X3), for which the thermal stability z-score is -0.282 with lipoamide (setting [1]), 0.317 with lipoamide (arsenate co-treatment: none) and -0.43 in the assay with potassium arsenate.

Take AHCYL1 (UniProt O43865): the thermal stability z-score with lipoamide (setting [1]) is 0.156; with lipoamide (arsenate co-treatment: none) it was -0.134; in the assay with potassium arsenate, -6.61.

As to NIPSNAP3A (UniProt Q9UFN0), the thermal stability z-score with lipoamide (setting [1]) was 0.144; with lipoamide (arsenate co-treatment: none) it was 0.432; with potassium arsenate it was 0.337.

ZFR (UniProt Q96KR1): the thermal stability z-score with lipoamide (setting [1]) is 0.561; in the assay with lipoamide (arsenate co-treatment: none), 0.0288; with potassium arsenate it was -0.37.

Take CETN3 (UniProt O15182): the thermal stability z-score was 1.25 with lipoamide (setting [1]), 1.49 in the assay with lipoamide (arsenate co-treatment: none) and 1.71 with potassium arsenate.

As to SH3PXD2A (UniProt Q5TCZ1), the thermal stability z-score in the assay with lipoamide (setting [1]) was -0.325; in the assay with lipoamide (arsenate co-treatment: none), -1.05; with potassium arsenate it was 0.207.

Consider MRPS34 (UniProt P82930), for which the thermal stability z-score in the assay with lipoamide (setting [1]) is -0.835; in the assay with lipoamide (arsenate co-treatment: none), -0.044; in the assay with potassium arsenate, 0.427.

For DUSP9 (UniProt Q99956), the thermal stability z-score with lipoamide (setting [1]) came to 0.738; in the assay with lipoamide (arsenate co-treatment: none), 0.0584; with potassium arsenate it was 0.0461.

Consider TMEM87A (UniProt Q8NBN3), for which the thermal stability z-score with lipoamide (setting [1]) was 0.451; in the assay with lipoamide (arsenate co-treatment: none) it was 0.36; with potassium arsenate it was 0.645.

As to SQLE (UniProt Q14534), the thermal stability z-score came out at 0.647 in the assay with lipoamide (setting [1]), 1.27 with lipoamide (arsenate co-treatment: none) and 0.26 in the assay with potassium arsenate.

EMC2 (UniProt Q15006): the thermal stability z-score with lipoamide (setting [1]) was -0.278; in the assay with lipoamide (arsenate co-treatment: none) it was -0.164; with potassium arsenate it was 0.472.

As for WEE1 (UniProt P30291), the thermal stability z-score with lipoamide (setting [1]) was -0.142; in the assay with lipoamide (arsenate co-treatment: none), 0.206; with potassium arsenate it was 0.00265.

In the case of GNAI1 (UniProt P63096), the thermal stability z-score with lipoamide (setting [1]) stood at 0.913; with lipoamide (arsenate co-treatment: none) it was 1.18; with potassium arsenate, 0.0642.

Turning to PSMG4 (UniProt Q5JS54), the results for the thermal stability z-score in the assay with lipoamide (setting [1]), in the assay with lipoamide (arsenate co-treatment: none) and with potassium arsenate were -1.42, -1.53 and -1.38, respectively.

Turning to MRPL19 (UniProt P49406), the results for the thermal stability z-score in the assay with lipoamide (setting [1]), in the assay with lipoamide (arsenate co-treatment: none) and with potassium arsenate were -0.287, -0.00717 and 0.274, respectively.

Consider PRKAR1A (UniProt P10644), for which the thermal stability z-score with lipoamide (setting [1]) is -0.101; in the assay with lipoamide (arsenate co-treatment: none), 0.167; with potassium arsenate, -0.065.

On to YIPF5 (UniProt Q969M3), for which the figures for the thermal stability z-score with lipoamide (setting [1]), with lipoamide (arsenate co-treatment: none) and with potassium arsenate were -0.255, -0.344 and -0.18, respectively.

For the target KLHL26 (UniProt Q53HC5), the figures for the thermal stability z-score in the assay with lipoamide (setting [1]), in the assay with lipoamide (arsenate co-treatment: none) and in the assay with potassium arsenate were -0.138, -0.165 and -0.108, respectively.

With PKP2 (UniProt Q99959), the values for the thermal stability z-score with lipoamide (setting [1]), in the assay with lipoamide (arsenate co-treatment: none) and in the assay with potassium arsenate were 0.0483, -0.112 and -0.371, respectively.

As to WWP2 (UniProt O00308), the thermal stability z-score with lipoamide (setting [1]) is -0.0648; with lipoamide (arsenate co-treatment: none) it was -0.0387; in the assay with potassium arsenate, 0.0179.

Consider NSMAF (UniProt Q92636), for which the results for the thermal stability z-score with lipoamide (setting [1]), in the assay with lipoamide (arsenate co-treatment: none) and with potassium arsenate were -0.123, -0.458 and -0.758, respectively.

These data come from the supplement of paper PMC12463676, “Small-molecule dissolution of stress granules by redox modulation benefits ALS models” (Nature Chemical Biology, 2025).
